As a reminder, the EC50 is the concentration at which the effect is half-maximal. A word on the AC50: it is the midpoint of the concentration-response curve, whichever way the signal moves.

Calls of active or inactive are those of the source.

Test [1] addresses Voltage-dependent T-type calcium channel subunit alpha-1H (Homo sapiens, UniProt O95180). Type of test: functional.
A short description of test [2]: Luminescence Cell-Based Dose Response to Identify Activators of Luciferase Translation or Activity in H4-C Neuroglioblastoma Cells. [Related pubchem assays: 1829 (Project Summary), 1814 (Primary HTS)]. Type of test: functional.
A short description of test [3]: Luminescence Cell-Based Dose Response to Identify Activators of 5'UTR Stem-Loop Driven Prion Protein mRNA Translation in H4-C Neuroglioblastoma Cells. [Related pubchem assays: 1829 (Project Summary), 1814 (Primary HTS)]. Type of test: functional.
Test [4] is described as follows: Luminescence Cell-Based Dose Confirmation HTS to Identify Activators of 5'UTR Stem-Loop Driven Alpha-Synuclein mRNA Translation in H4 Neuroglioblastoma Cells. [Related pubchem assays: 1829 (Project Summary), 1814 (Primary HTS)]. Type of test: functional.
Test [5] deals with H4. The experiment in a line: Luminescence Cell-Based Dose Response HTS to Identify Activators of 5'UTR Stem-Loop Driven Prion Protein mRNA Translation in H4 Neuroglioblastoma Cells. [Related pubchem assays: 1829 (Project Summary), 1814 (Primary HTS)]. It is filed as functional. The note with it: Homo sapiens.
Test [6] in a line: Luminescence Cell-Based Dose Confirmation to Identify Activators of 5'UTR Stem-Loop Driven Alpha-Synuclein mRNA Translation in H4 Neuroglioblastoma Cells. [Related pubchem assays: 1829 (Project Summary), 1814 (Primary HTS)]. Type of test: functional.
Test [7] can be described thus: Luminescence Cell-Based Dose Response HTS to Identify Activators of Luciferase Translation or Activity in H4 […] Cells. [Related pubchem assays: 1829 (Project Summary), 1814 (Primary HTS)]. It is filed as functional.
In test [8] the target is Cytochrome P450 3A4 (Homo sapiens, UniProt P08684). The note with it: Potency.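 Also: confirmatory qHTS run detecting inhibitors and substrates of CYP3A4.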
Cytochrome P450 3A4, sequence (P08684 whole entry): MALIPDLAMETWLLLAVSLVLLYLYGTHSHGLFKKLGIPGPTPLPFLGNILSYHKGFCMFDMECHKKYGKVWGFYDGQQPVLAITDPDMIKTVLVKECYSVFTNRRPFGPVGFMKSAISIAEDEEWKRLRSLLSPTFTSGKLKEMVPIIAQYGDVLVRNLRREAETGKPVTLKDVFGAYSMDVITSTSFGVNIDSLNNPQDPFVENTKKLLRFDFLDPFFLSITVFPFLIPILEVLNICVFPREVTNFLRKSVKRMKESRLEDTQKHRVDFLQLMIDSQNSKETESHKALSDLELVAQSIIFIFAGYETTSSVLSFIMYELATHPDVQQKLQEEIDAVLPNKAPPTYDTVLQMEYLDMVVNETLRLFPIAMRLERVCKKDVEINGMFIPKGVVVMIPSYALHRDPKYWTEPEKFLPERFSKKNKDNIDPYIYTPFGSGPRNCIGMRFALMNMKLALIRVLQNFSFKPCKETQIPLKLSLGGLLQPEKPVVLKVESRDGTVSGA
Test [9] deals with E3 ubiquitin-protein ligase Mdm2 (Homo sapiens, UniProt Q00987). The experiment in a line: MDM2-luc reporter signal enhancers, multi-concentration potency testing, MDM2 ubiquitin-protein ligase inhibitor program, whole-cell format, luminescence detection, 384-well microplate (AID 1394).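 Also: MDM2 E3 inhibitors raise luminescence so EC50 is for signal enhancement.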 Type of test: functional.
E3 ubiquitin-protein ligase Mdm2, sequence (Q00987 whole entry): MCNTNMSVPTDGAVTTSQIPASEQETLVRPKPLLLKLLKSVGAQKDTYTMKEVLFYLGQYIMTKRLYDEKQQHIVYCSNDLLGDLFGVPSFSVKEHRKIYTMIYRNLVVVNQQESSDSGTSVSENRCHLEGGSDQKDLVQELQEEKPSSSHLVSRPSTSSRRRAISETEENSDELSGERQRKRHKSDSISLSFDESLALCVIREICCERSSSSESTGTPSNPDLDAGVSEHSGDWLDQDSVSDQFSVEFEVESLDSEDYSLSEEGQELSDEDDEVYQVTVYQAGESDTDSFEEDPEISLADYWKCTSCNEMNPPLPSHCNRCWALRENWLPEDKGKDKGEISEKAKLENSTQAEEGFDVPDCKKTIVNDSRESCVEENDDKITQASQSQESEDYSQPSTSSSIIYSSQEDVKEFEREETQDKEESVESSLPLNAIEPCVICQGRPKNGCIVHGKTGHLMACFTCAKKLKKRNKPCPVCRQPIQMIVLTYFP
Test [10] deals with NAD-dependent protein deacylase sirtuin-5, mitochondrial (Homo sapiens, UniProt Q9NXA8). The experiment in a line: sirtuin-5 deacylation blockers, concentration series – biochemical, fluorescence imaging, cherry-pick, set 5, dose response (AID 720591).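 Also: desuccinylation of succinyl peptide AMC substrate read as fluorescence after trypsin release; potency of inhibitors that lower fluorescence and may act on trypsin instead.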
NAD-dependent protein deacylase sirtuin-5, mitochondrial, sequence (Q9NXA8 whole entry, the tested form may be a part): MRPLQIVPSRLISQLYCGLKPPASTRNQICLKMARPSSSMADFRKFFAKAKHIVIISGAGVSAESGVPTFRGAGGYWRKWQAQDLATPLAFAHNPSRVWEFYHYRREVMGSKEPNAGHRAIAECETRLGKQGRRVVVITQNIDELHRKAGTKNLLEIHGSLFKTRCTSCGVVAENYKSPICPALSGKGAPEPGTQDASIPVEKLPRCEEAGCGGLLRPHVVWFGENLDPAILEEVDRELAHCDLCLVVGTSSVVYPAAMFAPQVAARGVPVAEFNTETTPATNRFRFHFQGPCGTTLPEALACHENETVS
The target in test [11] is T1, Carboxy-terminal domain RNA polymerase II polypeptide A small phosphatase 1 (Homo sapiens, UniProt Q9GZU7).
T1 sequence (Q9GZU7 whole entry): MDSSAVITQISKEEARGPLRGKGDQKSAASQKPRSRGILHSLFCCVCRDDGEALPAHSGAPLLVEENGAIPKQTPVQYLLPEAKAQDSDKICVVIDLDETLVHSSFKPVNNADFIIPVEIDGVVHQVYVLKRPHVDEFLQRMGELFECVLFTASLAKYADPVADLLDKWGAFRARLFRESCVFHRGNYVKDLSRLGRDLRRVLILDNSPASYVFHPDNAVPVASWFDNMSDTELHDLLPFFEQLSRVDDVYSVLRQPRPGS
The experiment in a line: CTDSP1 inhibitors, concentration-response, biochemical, absorbance readout, ultra-high-throughput screen actives (AID 540297). It is filed as functional.

Test [12] has as its target T2, Rac GTPase-activating protein 1 (Homo sapiens, UniProt Q9H0H5).
T2 sequence (Q9H0H5 whole entry): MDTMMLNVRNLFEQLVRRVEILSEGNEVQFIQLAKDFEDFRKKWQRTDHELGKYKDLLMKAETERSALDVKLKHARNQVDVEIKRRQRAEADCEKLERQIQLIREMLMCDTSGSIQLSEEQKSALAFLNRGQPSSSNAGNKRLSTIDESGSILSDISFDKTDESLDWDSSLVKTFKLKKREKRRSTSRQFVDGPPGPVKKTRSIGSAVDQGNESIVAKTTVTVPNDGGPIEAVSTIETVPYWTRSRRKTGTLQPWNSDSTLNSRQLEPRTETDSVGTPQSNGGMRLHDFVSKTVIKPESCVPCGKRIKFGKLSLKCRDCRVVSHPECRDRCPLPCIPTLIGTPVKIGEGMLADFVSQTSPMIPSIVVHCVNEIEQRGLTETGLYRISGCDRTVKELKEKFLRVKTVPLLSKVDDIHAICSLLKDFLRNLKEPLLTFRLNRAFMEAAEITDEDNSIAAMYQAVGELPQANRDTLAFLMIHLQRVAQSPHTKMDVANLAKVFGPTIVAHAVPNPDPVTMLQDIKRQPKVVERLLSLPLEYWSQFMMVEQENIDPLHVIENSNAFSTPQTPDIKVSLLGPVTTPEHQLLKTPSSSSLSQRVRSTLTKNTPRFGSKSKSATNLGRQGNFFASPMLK
In words: blockers of MgcRacGAP-driven Rac1 GTP hydrolysis – biochemical, ADP Hunter fluorescence, primary and confirmatory, confirmation (AID 624330). It is filed as functional.

The nature of test [13]: Trypanosoma cruzi growth suppression in host cells – NIH3T3 host cells, beta-gal luminescence, confirmation (AID 2044).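 Also: intracellular parasites grown in NIH/3T3 mouse fibroblasts as host cells; luminescent beta-galactosidase reporter signal from transgenic T. cruzi replicating inside host cells; inhibitors lower the luminescence signal.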 It is filed as functional, cell-based.
Test [14] is described as follows: NIH3T3 cell viability loss – ATP luminescence, mouse fibroblasts, counter-screen, dose response (AID 2010).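 Also: cells exposed to compound for about 90 hours before reading.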 It is filed as functional, cell-based. (Counterscreens check selectivity or assay interference.)
Test [15] in a line: cells.
Test [16] addresses Protein Wnt-3a (Mus musculus, UniProt P27467). In words: antagonism of Wnt3a pathway luciferase reporter – Wnt-LIGHT cells, luminescence, selectivity assay for Gli-SUFU antagonist project, dose response (AID 651570).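 Also: Wnt-LIGHT reporter cells stimulated with conditioned medium from Wnt3a-producing cells.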 It is filed as functional. The note with it: read-out: IC50_Mean.
For test [17], the target named is Paired box protein Pax-8 (Homo sapiens, UniProt Q06710). The experiment in a line: PAX8 transcriptional activity inhibition in RMG-I – RMG-I cells, luciferase, cherry-pick, dose response (AID 687027).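 Also: luciferase reporter driven by Pax8 target thyroperoxidase promoter measured by SteadyGlo luminescence.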 Type of test: functional, cell-based.
Paired box protein Pax-8, sequence (Q06710 whole entry): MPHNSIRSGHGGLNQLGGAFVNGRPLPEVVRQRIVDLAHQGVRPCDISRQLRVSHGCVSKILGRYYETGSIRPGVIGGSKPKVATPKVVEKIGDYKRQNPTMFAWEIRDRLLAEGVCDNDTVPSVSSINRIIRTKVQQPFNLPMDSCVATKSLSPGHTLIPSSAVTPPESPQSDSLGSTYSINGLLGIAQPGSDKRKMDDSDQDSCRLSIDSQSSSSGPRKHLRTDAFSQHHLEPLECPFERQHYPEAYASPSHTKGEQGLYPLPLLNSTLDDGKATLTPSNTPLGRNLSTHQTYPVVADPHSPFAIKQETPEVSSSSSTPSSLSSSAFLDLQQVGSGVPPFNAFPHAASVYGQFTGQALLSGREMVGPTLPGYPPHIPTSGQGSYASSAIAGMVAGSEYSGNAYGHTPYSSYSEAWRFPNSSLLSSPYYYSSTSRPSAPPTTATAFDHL
Test [18] can be described thus: M. tuberculosis H37Rv growth inhibitors, H37Rv strain (AID 1626). Type of test: functional.
Test [19] addresses T3, Calpain-2 catalytic subunit (Sus scrofa, UniProt P43367).
T3 sequence (P43367 whole entry): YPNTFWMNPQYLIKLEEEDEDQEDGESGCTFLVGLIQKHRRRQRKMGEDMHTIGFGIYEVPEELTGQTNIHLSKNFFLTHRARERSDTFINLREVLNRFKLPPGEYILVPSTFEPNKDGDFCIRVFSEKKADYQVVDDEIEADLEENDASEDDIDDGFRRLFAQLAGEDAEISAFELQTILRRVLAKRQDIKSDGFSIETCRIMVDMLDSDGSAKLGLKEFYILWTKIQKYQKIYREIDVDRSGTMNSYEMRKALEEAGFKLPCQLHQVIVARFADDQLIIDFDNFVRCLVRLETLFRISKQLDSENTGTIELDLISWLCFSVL
In words: m-calpain protease blockers, concentration series – biochemical, fluorogenic peptide substrate, dose response (AID 1420). It is filed as functional.

Test [20] deals with T4, Tyrosine-protein phosphatase non-receptor type 7 (Homo sapiens, UniProt P35236).
T4 sequence (P35236 whole entry): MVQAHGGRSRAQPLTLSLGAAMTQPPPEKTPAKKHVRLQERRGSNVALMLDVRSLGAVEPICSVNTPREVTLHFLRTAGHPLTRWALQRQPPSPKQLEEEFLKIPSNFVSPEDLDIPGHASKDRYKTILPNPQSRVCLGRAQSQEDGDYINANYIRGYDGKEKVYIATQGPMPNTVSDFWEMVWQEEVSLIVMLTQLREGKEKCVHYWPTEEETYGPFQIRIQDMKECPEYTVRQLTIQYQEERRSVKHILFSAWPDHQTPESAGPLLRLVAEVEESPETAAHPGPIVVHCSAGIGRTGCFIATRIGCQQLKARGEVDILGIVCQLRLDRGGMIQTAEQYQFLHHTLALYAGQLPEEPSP
In words: HePTP tyrosine phosphatase activity blockers – biochemical, absorbance, leukemia target, primary screen (AID 521). It is filed as functional.

Test [21] is described as follows: Dd2 malaria parasite growth inhibition potency – SYBR Green, dry powder samples, dose response (AID 1159566).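 Also: potency for growth inhibition with lower SYBR green DNA signal.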 Type of test: functional, cell-based.
A short description of test [22]: toxicity to human hepatoma HepG2 cells – cell-based, cherry-picked samples, cytotoxicity control, dose response (AID 1159577). Type of test: functional.
Test [23] can be described thus: toxicity to human HepG2 hepatoma cells – cell-based, plate reader, dry powder samples, cytotoxicity control, dose response (AID 1159569).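 Also: inhibitor potency with signal falling toward the positive control level.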 It is filed as functional.
Test [24] is described as follows: growth inhibition of PfATP4-mutant resistant parasites – NITD609-resistant line, SYBR Green, dry powder, dose response (AID 1159571).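 Also: parasites synchronized at ring stage by sorbitol before testing.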 It is filed as functional, cell-based.
The nature of test [25]: growth inhibition of yeast DHODH-expressing 3D7 parasites – SYBR Green, dry powder samples, dose response (AID 1159570).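 Also: parasite growth measured after 72 hours of compound exposure.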 Type of test: functional, cell-based.
A short description of test [26]: P. falciparum Dd2 growth inhibitors, dose response, SYBR Green, cherry-picked samples (AID 1159567). It is filed as functional, cell-based.

Voltage-dependent T-type calcium channel subunit alpha-1H, sequence (O95180 whole entry): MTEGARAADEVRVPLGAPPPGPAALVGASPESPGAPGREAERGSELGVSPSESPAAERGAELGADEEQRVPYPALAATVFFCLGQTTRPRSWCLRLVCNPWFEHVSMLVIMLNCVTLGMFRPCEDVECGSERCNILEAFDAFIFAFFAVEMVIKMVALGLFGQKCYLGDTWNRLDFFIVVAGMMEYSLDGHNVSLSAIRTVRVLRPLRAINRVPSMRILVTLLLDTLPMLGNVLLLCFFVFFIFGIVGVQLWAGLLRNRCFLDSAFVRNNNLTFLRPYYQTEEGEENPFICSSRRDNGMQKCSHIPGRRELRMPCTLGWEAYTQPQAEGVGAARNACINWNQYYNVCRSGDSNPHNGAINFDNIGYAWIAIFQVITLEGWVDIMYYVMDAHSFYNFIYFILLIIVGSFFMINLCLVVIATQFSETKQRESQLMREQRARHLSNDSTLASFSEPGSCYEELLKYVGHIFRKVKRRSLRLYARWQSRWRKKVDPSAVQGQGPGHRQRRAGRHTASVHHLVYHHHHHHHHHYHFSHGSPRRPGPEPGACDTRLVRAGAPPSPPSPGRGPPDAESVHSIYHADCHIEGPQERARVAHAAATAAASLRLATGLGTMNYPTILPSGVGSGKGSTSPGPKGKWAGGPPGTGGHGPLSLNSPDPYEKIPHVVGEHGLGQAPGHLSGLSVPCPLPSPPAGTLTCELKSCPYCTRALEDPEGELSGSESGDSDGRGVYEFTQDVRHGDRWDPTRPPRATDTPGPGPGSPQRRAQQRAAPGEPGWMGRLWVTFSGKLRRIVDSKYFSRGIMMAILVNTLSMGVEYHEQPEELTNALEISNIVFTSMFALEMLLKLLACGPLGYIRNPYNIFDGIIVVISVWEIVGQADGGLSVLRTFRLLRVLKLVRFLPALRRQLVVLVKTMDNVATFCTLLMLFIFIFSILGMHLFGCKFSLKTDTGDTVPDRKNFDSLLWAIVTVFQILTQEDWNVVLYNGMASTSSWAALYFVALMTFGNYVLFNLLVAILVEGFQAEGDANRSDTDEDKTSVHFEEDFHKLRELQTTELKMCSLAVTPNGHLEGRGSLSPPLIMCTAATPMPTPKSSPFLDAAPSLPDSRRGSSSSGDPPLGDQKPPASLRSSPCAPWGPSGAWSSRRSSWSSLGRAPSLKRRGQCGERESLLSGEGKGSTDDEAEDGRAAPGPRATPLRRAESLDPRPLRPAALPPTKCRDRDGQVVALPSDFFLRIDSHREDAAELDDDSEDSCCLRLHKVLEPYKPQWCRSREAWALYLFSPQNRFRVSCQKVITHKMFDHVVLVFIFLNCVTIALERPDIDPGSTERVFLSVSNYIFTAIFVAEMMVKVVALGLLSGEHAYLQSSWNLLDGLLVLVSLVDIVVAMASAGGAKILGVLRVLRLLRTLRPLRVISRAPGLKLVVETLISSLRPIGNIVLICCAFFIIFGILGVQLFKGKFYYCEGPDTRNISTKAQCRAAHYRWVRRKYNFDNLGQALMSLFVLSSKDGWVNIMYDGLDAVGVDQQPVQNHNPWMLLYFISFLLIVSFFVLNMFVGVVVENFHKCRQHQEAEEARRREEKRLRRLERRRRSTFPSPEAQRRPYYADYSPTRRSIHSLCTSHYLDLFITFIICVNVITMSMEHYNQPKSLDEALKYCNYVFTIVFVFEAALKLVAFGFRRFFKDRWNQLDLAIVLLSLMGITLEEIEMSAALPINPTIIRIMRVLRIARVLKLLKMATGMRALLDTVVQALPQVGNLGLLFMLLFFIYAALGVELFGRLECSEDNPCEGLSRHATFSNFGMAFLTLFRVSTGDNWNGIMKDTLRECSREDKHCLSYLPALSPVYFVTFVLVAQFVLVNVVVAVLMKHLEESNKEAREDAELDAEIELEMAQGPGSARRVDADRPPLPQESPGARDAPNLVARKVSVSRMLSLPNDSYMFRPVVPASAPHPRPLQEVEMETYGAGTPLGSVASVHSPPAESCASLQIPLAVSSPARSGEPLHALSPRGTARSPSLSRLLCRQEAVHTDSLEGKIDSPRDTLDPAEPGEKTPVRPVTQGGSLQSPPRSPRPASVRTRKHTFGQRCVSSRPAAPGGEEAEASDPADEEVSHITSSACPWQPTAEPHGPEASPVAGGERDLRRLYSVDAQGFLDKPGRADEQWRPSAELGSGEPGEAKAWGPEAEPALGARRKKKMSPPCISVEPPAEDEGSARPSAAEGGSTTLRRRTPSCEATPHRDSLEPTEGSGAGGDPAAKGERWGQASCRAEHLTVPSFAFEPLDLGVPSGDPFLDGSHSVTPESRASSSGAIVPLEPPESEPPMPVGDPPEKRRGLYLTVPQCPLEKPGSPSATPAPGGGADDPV
Protein Wnt-3a, sequence (P27467 whole entry): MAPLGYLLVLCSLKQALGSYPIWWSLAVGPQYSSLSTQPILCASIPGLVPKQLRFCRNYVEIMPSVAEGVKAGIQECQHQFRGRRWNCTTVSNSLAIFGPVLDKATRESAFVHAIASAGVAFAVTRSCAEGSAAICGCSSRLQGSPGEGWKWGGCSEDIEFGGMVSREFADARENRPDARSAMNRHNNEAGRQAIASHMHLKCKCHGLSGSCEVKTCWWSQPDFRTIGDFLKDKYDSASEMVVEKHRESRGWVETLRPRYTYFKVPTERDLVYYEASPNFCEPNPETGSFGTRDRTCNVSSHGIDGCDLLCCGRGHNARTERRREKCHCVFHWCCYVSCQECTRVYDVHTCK

For `CCCOc1ccccc1Cn1c(=O)oc2ccc(C)cc21`, the EC50 in test [1] was 10.6 µM (active).

Take `O=C(c1cc(COc2ccc(F)cc2Cl)on1)N1CCSCC1`: the EC50 in test [2] was > 12 µM (not active); in test [3] it was > 12 µM (not active); in [4], 0.787 µM (active); in [5], 0.1 µM (active); in [6], 0.63 µM (active); in test [7], 4 µM (active).

As to `COC(=O)CC1C(C)(C)C2(O)OC34CC2C(=O)[C@@]1(C)C3CC[C@]1(C)C4=CC(=O)OC1c1ccoc1` (some centres undefined), the concentration at half-maximal activity (AC50) in test [8] is 3.16 µM (inconclusive).

Take `CC1(C)CC2=Nc3nc(SCCN4CCOCC4)nc(O)c3C(c3cccs3)C2=C(O)C1` (centres undefined): the EC50 in test [9] is 47.7 µM (not active).

With `O=C(O)CSc1ncnc2c1sc1nc(-c3ccccc3)c3c(c12)CCC3`, the AC50 in [10] was > 30 µM (inactive). Further, the IC50 in test [11] was 4.04 µM (active).

For `COc1ccccc1-c1c[nH]nc1-c1ccc(O)cc1O`, in [10], the AC50 is 21.6 µM (active). The IC50 in test [12] was 42.4 µM (active).

As for `CCOC(=O)c1c(NC(=O)Cn2cnc([N+](=O)[O-])n2)sc2c1CCC(C)C2` (centres undefined), the 50% effective concentration (EC50) was < 0.1 µM (active) in test [13], > 60 µM (not active) in [14] and 0.221 µM (active) in test [15].

For the molecule `C(=C\c1ccccc1)/CN1CCN(Cc2ccc3c(c2)OCCO3)CC1`, the EC50 is < 0.1 µM (active) in [13], > 60 µM (not active) in test [14] and 0.053 µM (active) in test [15].

On to `CCOC(=O)N1CCN(C(=O)c2cc(COc3ccc4ncccc4c3)on2)CC1`, for which the IC50 in [16] was 0.555 µM (active). Besides, the AC50 in test [10] was > 30 µM (inactive).

For the molecule `C=C1C2(C(=O)Nc3ccc(SC(F)F)cc3)CCC(C2)C1(C)C` (centres undefined), the AC50 in test [17] is 62.8 µM (active). Also, the IC50 in test [18] is > 100 µM (active).

Take `Cc1cc(C)nc(S/C=C/C(=O)c2ccc(F)cc2)n1`: the EC50 in test [9] was 0.81 µM (active).

As for `COc1ccccc1NC(=O)N1CCc2[nH]c3ccc(Cl)cc3c2C1`, the EC50 in [1] is 11.4 µM (active).

As for `O=C(Nc1cccnc1)c1cc2cc(Br)ccc2oc1=O`, the results for the IC50 in test [19] and in [18] were 17.6 µM (not active) and > 100 µM (active), respectively.

Turning to `CC(C)c1ccc(C(=O)NN2C(=O)C3CCCCC3C2=O)cc1` (centres undefined), the EC50 in test [2] is 1.48 µM (active); in [3], 1.21 µM (active); in test [4] it was < 0.1 µM (active); in test [5], 28.8 µM (active); in [6] it was 1.33 µM (active); in test [7], 0.118 µM (active).

As for `c1ccc(-n2ncc3c(N4CCC5(CC4)OCCO5)ncnc32)cc1`, the EC50 is 0.364 µM (active) in [2]; 1.1 µM (active) in [3]; > 120 µM (not active) in test [5]; 0.247 µM (active) in [6]; < 0.1 µM (active) in [7].

Regarding `O=C(CCCn1c(=S)[nH]c2ccsc2c1=O)NCc1ccco1`, in [20], the IC50 is listed as > 100 µM (not active).

For the molecule `CCC(=O)Nc1ccc(NC(=O)c2ccco2)c(OC)c1`, the IC50 in test [20] is given as > 100 µM (not active).

Take `COc1ccc(N2Cc3ccccc3C2)cc1Cl`: the IC50 in [18] was > 100 µM (active).

For the molecule `O=C(CCSc1ccccc1)Nc1nnc(-c2ccccc2)o1`, the IC50 in test [18] was > 100 µM (active).

As to `CC1CCc2c(sc(NC(=O)Cn3cnc([N+](=O)[O-])n3)c2C(N)=O)C1` (centres undefined), the figures for the concentration for a half-maximal effect (EC50) in [13], in test [14] and in test [15] were < 0.1 µM (active), > 30 µM (not active) and 0.102 µM (active), respectively.

As for `Oc1ccc2c(c1)OCC1c3cc4c(cc3OC21)OCO4` (centres undefined), in test [8], the AC50 is 39.8 µM (inconclusive).

`CCCc1cn(CC[C@H]2CC[C@@H](NS(=O)(=O)c3ccc(-c4ccccc4)cc3)[C@@H](CO)O2)nn1`: the AC50 in test [21] is 0.914 µM (active); in test [22], > 39 µM (inactive); in test [23], 47.4 µM (active); in test [24], 0.833 µM (active); in [25] it was 0.963 µM (active); in [26], 0.689 µM (active).

As for `COc1ccc(C#Cc2ccc([C@@H]3[C@@H](CO)N4CCCCN(Cc5ccccc5F)C[C@H]34)cc2)cc1`, the AC50 was 7.91 µM (active) in [22] and 0.807 µM (active) in test [26].

Values taken from ChEMBL document CHEMBL1201862, “PubChem BioAssay data set” (2004).
